Here are results for five compounds from patent publication US20240390301A1, “COMBINATIONS OF PERIPHERAL 5-HT2A RECEPTOR ANTAGONISTS AND CENTRAL 5-HT2A RECEPTOR AGONISTS” (priority 2021, published 2024).

Several values for one entry are separate records, joined by “and”; a condition that tells them apart may be missing. Identical values can stand only once.

One data set is described as follows: in vivo. The protocol: The pharmacokinetics of peripheral 5-HT2A antagonists were studied in the plasma (Tables 11 and 12) and brains (Table 13 and 14) of rats after subcutaneous (SC) dosing. The results were used to interpret the in vivo pharmacological results.
Animals. Male Sprague Dawley rats, aged 8-12 weeks. were used in these studies. Four rats were housed in each cage. […] Temperature and humidity were recorded by an auto-controlled data logger system. All animals were provided laboratory rodent diet and were fasted for 4 h pre-dose and 2 h post-dose. Reverse osmosis water treated with ultraviolet light was provided ad libitum. Animals were randomly assigned to treatment groups.
Drugs and Drug Administration. Test compounds were prepared as described above or commercially obtained. They were administered subcutaneously (SC) at a dose of 1 or 10 mg/kg (as indicated, calculated based on the free base) and at a volume of 5 mL/kg body weight.
Sample Collection and Bioanalysis. […] SC. […] For both studies, immediately after blood collection, plasma was harvested by centrifugation at 4,000 rpm for 10 min at 4° C. and samples were stored at −70±10° C. until bioanalysis. Following blood collection, animals were immediately sacrificed, the abdominal vena-cava was cut open, and the whole body was perfused from the heart using 10 mL of normal saline, and brain samples were collected from all animals. After isolation, brain samples were rinsed three times in ice-cold normal saline (for 5-10 seconds/rinse using ˜5-10 mL normal saline in disposable petri dish for each rinse) and dried on blotting paper. Brain samples were homogenized using ice-cold phosphate-buffered saline (pH 7.4). Total homogenate volume was three times the tissue weight. All homogenates were stored at −70±10° C. until bioanalysis. For bioanalysis, 25 μL aliquots of plasma/brain study samples or spiked plasma/brain calibration standards were added to individual pre-labeled micro-centrifuge tubes followed by 100 μL of an internal standard solution (glipizide, 500 ng/ml in acetonitrile) except for blanks, where 100 μL of acetonitrile was added. Samples were vortexed for 5 minutes and then centrifuged for 10 minutes at 4,000 rpm at 4° C. Following centrifugation, 100 μL of each clear supernatant was transferred to a 96-well plate and analyzed with a fit-for-purpose LC-MS/MS method, with authentic samples of each analyte used for calibration and identification.

Data set [1] in a line: Metabolic stability in rat liver microsomes. The data set is classed as in vitro ADME. Conditions: for half-life at 1 μM / microsomal CLint at 1 μM: both sexes, rat, microsomes, pH 7.4. The protocol:
RLM Stability. Pooled RLM from adult male and female donors (Xenotech R1000) were used. Microsomal incubations were carried out in multi-well plates. Liver microsomal incubation medium consisted of PBS (100 mM, pH 7.4), MgCl2 (1 mM), and NADPH (1 mM), with 0.50 mg of liver microsomal protein per mL. Control incubations were performed by replacing the NADPH-cofactor system with PBS. Test compounds (1 μM, final solvent concentration 1.0%) were incubated with microsomes at 37° C. with constant shaking. Six time points over 60 minutes were analyzed, with 60 μL aliquots of the reaction mixture being drawn at each time point. The reaction aliquots were stopped by adding 180 μL of cold (4° C.) acetonitrile containing 200 ng/mL tolbutamide and 200 ng/ml labetalol as internal standards (IS), followed by shaking for 10 minutes, and then protein sedimentation by centrifugation at 4,000 rpm for 20 minutes at 4° C. Supernatant samples (80 μL) were diluted with water (240 μL) and analyzed for parent compound remaining using a fit-for-purpose liquid chromatography-tandem mass spectrometry (LC-MS/MS) method.
Data Analysis. The elimination constant (kel), half-life (t1/2), and intrinsic clearance (CLint) were determined in a plot of […] versus time, using linear regression analysis.
On the technique in general: Liver microsomes are vesicles of endoplasmic reticulum, rich in cytochrome P450 enzymes.

Setting [2] is: male, Sprague Dawley, rat, in vivo, sc, 10 mg/kg.
[3] abbreviates: RLM, 1 μM, 0.50 mg protein per mL, NADPH.
Setting [4] is: male, Sprague Dawley, rat, in vivo, sc, 1 mg/kg.

As to `COc1cccc(C(=O)Nc2ccc(OCCN3CCOCC3)c(-c3ccnn3C)c2)c1` [temanogrel], in “in vivo” (setting [2]), the concentration at 0.167 h is 411 ng/mL and 113 ng/g; the concentration at 0.5 h was 518 ng/mL and 148 ng/g.
By half-life is commonly meant the time needed for the level to fall by half in the phase considered. Read a low half-life as fast loss. A word on the microsomal CLint: it is the capacity of the preparation to metabolise the compound, expressed as a volume cleared per time. Low values mean greater metabolic stability, high ones faster metabolism. Usually AUC(0-t) stands for the area under the concentration-time curve up to a stated or last time point. For orientation: Cmax means the maximum level reached in the sampled fluid or tissue. The term Tmax denotes the time from dosing to the highest level. On to `CC(C)COc1ccc(CNC(=O)N(Cc2ccc(F)cc2)C2CCN(C(=O)CC[C@H](N)C(=O)O)CC2)cc1` [Compound 14a, (S)-2-amino-5-(4-(1-(4-fluorobenzyl)-3-(4-isobutoxybenzyl)ureido)piperidin-1-yl)-5-oxopentanoic acid], for which the “Metabolic stability in RLM” value in data set [1] is “highly stable”. Further, in data set [1] (setting [3]), the half-life at 1 μM is > 145 min and the microsomal CLint at 1 μM is < 9.6 µL/min/mg. Besides, in the data set “in vivo” (setting [4]), the AUC(0-t) turned out to be 434 ng·h/mL, the peak level (Cmax) was 271 ng/mL, the Tmax came to 30 min and the concentration at 0.167 h came out at 265 ng/mL. Besides, in “in vivo” (setting [4]), the concentration at 0.5 h worked out at 271 ng/mL and the half-life was 51 min. Besides, in the data set “in vivo” (setting [2]), the concentration at 0.167 h is 966 ng/mL and 35.6 ng/g; the concentration at 0.5 h is 1530 ng/mL and 40.7 ng/g.
Turning to `COc1cccc(CCc2ccccc2OCC(CN(C)C)OC(=O)CCC(=O)O)c1` (stereo not shown) [sarpogrelate], in the data set “in vivo” (setting [2]), the concentration at 0.167 h is 2130 ng/mL and 28.9 ng/g; the concentration at 0.5 h was 2990 ng/mL and 31.8 ng/g.
Take `CC(CNC(=N)CNc1ccccc1)Oc1cccc(Cl)c1.O=CO` (stereo not shown) [BW501C67, N-(2-(3-chlorophenoxy)propyl)-2-(phenylamino)acetimidamide formate]: the “Metabolic stability in RLM” value in data set [1] is “poor metabolic stability”. Also, in data set [1] (setting [3]), the half-life at 1 μM was determined as 2.1 min and the microsomal CLint at 1 μM was found to be 658 µL/min/mg. In “in vivo” (setting [4]), the Cmax is 91.4 ng/mL and 32.3 ng/g; the concentration at 0.167 h was 91.4 ng/mL and 10.4 ng/g; the concentration at 0.5 h was 73.8 ng/mL and 13.6 ng/g; the half-life is 187 min. In “in vivo” (male, Sprague Dawley, rat, in vivo, sc, 1 mg/kg, AUC0-last (h*ng/mL), brain, 1 mg/kg SC), this compound gave an AUC(0-t) of 436 ng·h/mL. This compound also gave an AUC(0-t) in “in vivo” (male, Sprague Dawley, rat, in vivo, sc, 1 mg/kg, AUC0-last (h*ng/mL), plasma, 1 mg/kg SC) of 277 ng·h/mL. Further, the Tmax in the data set “in vivo” (male, Sprague Dawley, rat, in vivo, sc, 1 mg/kg, Tmax (h), brain, 1 mg/kg SC) worked out at 240 min. For the same compound, in the data set “in vivo” (male, Sprague Dawley, rat, in vivo, sc, 1 mg/kg, Tmax (h), plasma, 1 mg/kg SC), the Tmax turned out to be 10.2 min.
With `COc1cccc(OC(C)CNC(=N)Cc2cccc(C)c2)c1.O=C(O)C(F)(F)F` (stereo not shown) [xylamidine, N-(2-(3-methoxyphenoxy)propyl)-2-(m-tolyl) acetimidamide trifluoroacetate], in data set [1], the “Metabolic stability in RLM” value is “poor metabolic stability”. For the same compound, in data set [1] (setting [3]), the “Clint” value was determined as 709.1 µL/min/mg and the “t1/2” value came out at 2.0 min. Besides, in “in vivo” (brain, 1 mg/kg SC), the “Tmax” value was found to be 60 min and the “t1/2” value amounted to 289 min. Further, the “0.167 h (ng/g) brain concentration” value in “in vivo” (brain, 1 mg/kg SC, 0.167 h) came out at 14.4 ng/g. In addition, the “0.5 h (ng/g) brain concentration” value in “in vivo” (brain, 1 mg/kg SC, 0.5 h) turned out to be 35.4 ng/g. Besides, in “in vivo” (brain, 10 mg/kg SC, 0.167 h), the “Mean brain concentration 0.167 h” value is 100.8 ng/g. The “Mean brain concentration 0.5 h” value in “in vivo” (brain, 10 mg/kg SC, 0.5 h) is listed as 60.7 ng/g. In “in vivo” (plasma, 1 mg/kg SC), the “AUC0-last” value worked out at 343.6 ng·h/mL, the “Cmax” value stood at 155.4 ng/mL, the “Tmax” value is 10.2 min and the “t1/2” value amounted to 103 min. The “0.167 h (ng/mL) plasma concentration” value in the data set “in vivo” (plasma, 1 mg/kg SC, 0.167 h) is 155.4 ng/mL. For the same compound, the “0.5 h (ng/mL) plasma concentration” value in “in vivo” (plasma, 1 mg/kg SC, 0.5 h) amounted to 133.4 ng/mL. In the data set “in vivo” (plasma, 10 mg/kg SC, 0.167 h), the “Mean plasma concentration 0.167 h” value is 1099.2 ng/mL. Further, the “Mean plasma concentration 0.5 h” value in the data set “in vivo” (plasma, 10 mg/kg SC, 0.5 h) stood at 670.0 ng/mL.
